Results taken from patent publication US11028078B2 (The Johns Hopkins University, priority 2011, dated 2021).

Legend:
CYP3A4 = target: T1, CYP3A4 (Homo sapiens, UniProt P08684); experiment: CYP3A4 enzyme assay (Vivid CYP3A4 Green Screening Kit); assay type: in vitro ADME; conditions: % enzyme inhibition at 1 μM drug / % enzyme inhibition at 1 μM itraconazole
T1 construct: purchased ThermoFisher P2857; host or cells: baculosomes
Method: And CYP3A4 inhibition was initially determined using a cell-free fluorescence-based assay at a final concentration of 1 μM (Table 7).
CYP3A4 enzyme assay. CYP3A4 enzyme activity was tested using Vivid™ CYP3A4 Green Screening Kit (ThermoFisher, #P2857) using the manufacturer's protocol. Briefly, CYP3A4 baculosomes and drugs were incubated 10 min at 37° C. Then Vivid® Substrates were added and the fluorescence (ex/em:485/520) were read every 1 min for 60 minute.

HUVEC = HUVEC proliferation assay ([3H]thymidine incorporation); assay type: cell-based, human; conditions: HUVEC; for Proliferation (IC50/IC50 Itra): IC50 of analog relative to IC50 of itraconazole
Method: The activity of the analogs against HUVEC proliferation, an in vitro proxy for angiogenesis inhibition (Table 3) was analyzed. […]
Pooled HUVEC (Lonza) were grown in EGM-2 bullet kit media (Lonza) and used at passage eight or lower. The proliferation assays were conducted as previously described (Nacev, B.; Low, W. K.; Huang, Z.; Su, T.; Su, Z.; Alkuraya, H.; Kasuga, D.; Sun, W.; Trager, M.; Braun, M.; Fischer, G.; Zhang, K.; Liu, J. O., Acalcineurin-independent mechanism of angiogenesis inhibition by anon-immunosuppressive Cyclosporin Aanalog. J. Pharmacol. Exp. Ther. 2011, DOI:10.1124/jpet.111.18085).

[1] = tested on: MB cultures derived from Ptch−/+; p53−/− mice; experiment: Medulloblastoma (MB) proliferation assay; assay type: cell-based, mouse; conditions: mouse medulloblastoma cultures, 96 h; relative to itraconazole
Excerpt: These cultures were derived from Ptch^−/+; p53^−/− mice that spontaneously develop medulloblastoma associated with ligand independent Hh pathway activation.
MB cultures were derived from mouse Ptch^−/+; p53^−/− MB grown as hind-flank allografts in nude mice (Harlan). Briefly, tumors were mechanically disrupted and made into single cell suspensions by two passages through a 70 μm nylon filter. Cells were pelleted by centrifugation and resuspended in PBS pH 7.4 twice. The cell suspension was then subjected to centrifugation at 1000×g for 25 min over a ficoll gradient. The viable cell layer formed at the ficoll boundary was then collected, suspended in PBS, and pelleted by centrifugation. The resulting pellet was then suspended and cultured as “neurospheres” in Neurobasal Media-A supplemented with retinoic acid deficient B-27 extract (NBMedia). Cells were cultured for three passages, with neurospheres disaggregated using Accumax (Innovative Cell Technologies) between passages.
Cultured MB neurospheres were disaggregated as described and 1×10^4 cells were seeded into wells of a 96-well assay plate in NBMedia and exposed to multiple analogue concentrations: Relative cell numbers following a 96-h incubation were quantified by CellTiter 96® AQueous One Solution Cell Proliferation Assay (Promega) per manufacturer's recommendations using a SpectraMax M2e spectrophotometer and SoftMax Pro software (Molecular Devices). Data was analyzed using Prism5 (GraphPad Software) and IC50 and IC90 values were determined from dose-response curves fitted to mean corrected absorbance normalized to control treatment.

VEGFR2 = VEGFR2 glycosylation in HUVEC (Western blot scoring); assay type: cell-based, human; conditions: VEGFR2 hypoglycosylation score in HUVEC, 2 μM, 24 h
Method: VEGFR2 hypoglycosylation was scored either robust (++), intermediate (+), or absent (−) (FIG. 6).
HUVEC were seeded at 5×10^4 per well of a 6-well plate in 3 mL of media. After an overnight recovery, the media was replaced with 2 mL fresh media and the analogs were added from 200× stocks in DMSO. Following a 24-h incubation, the media was aspirated and 2×SDS sample buffer was added to the cells which were incubated on ice for 10 min and then boiled for 10 min. […] Following three washes in TBS-T, the membrane was incubated with anti-rabbit horseradish peroxidase conjugated IgG (GE Healthcare) (1:5000-1:10000 dilution) in 1% BSA in TBS-T. The membranes were washed three times in TBS-T, incubated for 1-5 minutes with ECL substrate (Immobilon Wester, Milipore) and visualized (Kodak Image Staion 440 CF).

Gli1 transcript = experiment: Quantification of Gli1 transcript by TaqMan analysis in MB cells (Hh pathway); assay type: cell-based, mouse; conditions: Gli1 transcript fold induction score; MB cells exposed 24 h at the IC90 for MB proliferation
Excerpt: Inhibitors of the Hh pathway are known to inhibit MB cell proliferation. However, MB cell proliferation is also affected by drugs with targets other than Hh signaling.
Following drug exposure, cells were washed in PBS and pelleted by centrifugation at 300×g. Cell pellets were lysed in Trizol reagent (Invitrogen). Total RNA was separated and collected in the aqueous phase following centrifugation of lysate in the presence of chloroform. Total RNA was ethanol precipitated and purified over RNeasy Mini Kit (Qiagen) filter columns per manufacturer's recommendations. Transcript levels were quantified using gene-specific TaqMan primer/probe sets and the StepOne Plus Real-Time PCR system (Applied Biosystems) on cDNA reverse transcribed using the QuantiTect Reverse Transcription Kit (Qiagen) per manufacturers' recommendations. Results were quantified using StepOne Plus software v2.1 (Applied Biosystems) and were expressed as fold induction relative to control samples using the A ΔCt (2^−ΔΔCt) method with actin as an internal control. The primer/probe set (Applied Biosystems) for TaqMan PCR for mouse Gli-1 was Mm00494645_m1, and for mouse actin was Mm00607939_s1.

T1 sequence (P08684 whole entry): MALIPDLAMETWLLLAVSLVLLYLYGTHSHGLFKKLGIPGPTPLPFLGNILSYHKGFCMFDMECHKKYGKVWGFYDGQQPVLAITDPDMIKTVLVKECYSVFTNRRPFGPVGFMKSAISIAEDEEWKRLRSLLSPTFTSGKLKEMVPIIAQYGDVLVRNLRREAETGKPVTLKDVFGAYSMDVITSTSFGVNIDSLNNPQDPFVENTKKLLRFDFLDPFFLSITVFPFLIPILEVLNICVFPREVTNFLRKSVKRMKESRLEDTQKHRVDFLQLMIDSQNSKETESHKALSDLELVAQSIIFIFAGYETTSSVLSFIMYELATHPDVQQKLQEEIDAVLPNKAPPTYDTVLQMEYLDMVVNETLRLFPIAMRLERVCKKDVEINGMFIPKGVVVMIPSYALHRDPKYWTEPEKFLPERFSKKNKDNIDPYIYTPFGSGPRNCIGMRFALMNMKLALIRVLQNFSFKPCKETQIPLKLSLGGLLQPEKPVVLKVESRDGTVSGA

Compound | CYP3A4 Inhibition (compared to intracozanole at 1 μm) (CYP3A4) | IC50 (HUVEC; Homo sapiens, 3H thymidine incorporation, in μM, read-out: Proliferation IC50) [µM] | MB Proliferation (IC50/IC50 Itra) [1] | Glycosylation (2 μM dose) (VEGFR2) | Proliferation (IC50/IC50 Itra) (HUVEC) | Gli I Inhibition (IC90 Prolif. dose) (Gli1 transcript)
CCC(C)n1ncn(-c2ccc(N3CCN(c4ccc(OC[C@@H]5CO[C@@](Cn6nnnc6C)(c6ccc(Cl)cc6Cl)O5)cc4)CC3)cc2)c1=O (stereo partly drawn) [Compound 252, 1-sec-butyl-4-(4-(4-(4-(((2S,4R)-2-(2,4-dichlorophenyl)-2-((5-methyl-1H-tetrazol-1-yl)methyl)-1,3-dioxolan-4-yl)methoxy)phenyl)piperazin-1-yl)phenyl)-1H-1,2,4-triazol-5(4H)-one] | 0.08 | 0.101 |  |  |  | 
CCC(C)n1ncn(-c2ccc(N3CCN(c4ccc(OC[C@@H]5CO[C@@](Cc6ccccc6)(c6ccc(Cl)cc6Cl)O5)cc4)CC3)cc2)c1=O (stereo partly drawn) [Compound 260, 4-(4-(4-(4-(((2R,4R)-2-benzyl-2-(2,4-dichlorophenyl)-1,3-dioxolan-4-yl)methoxy)phenyl)piperazin-1-yl)phenyl)-1-sec-butyl-1H-1,2,4-triazol-5(4H)-one] | No inhibition |  |  |  |  | 
CCCn1ncn(-c2ccc(N3CCN(c4ccc(OC[C@@H]5CO[C@@](Cn6cncn6)(c6ccc(Cl)cc6Cl)O5)cc4)CC3)cc2)c1=O (relative stereo) [Compound 7c, cis-(2S,4R)-4-[4-[4-[4-[[2-(2,4-Dichlorophenyl)-2-(1H-1,2,4-triazol-1-ylmethyl)-1,3-dioxolan-4-yl]methoxy]phenyl]-lpiperazinyl]phenyl]-2,4-dihydro-2-propyl-3H-1,2,4-triazol-3-one] |  |  | 1.01 | + | 1.06 | ++ (≤0.15)
CCCCn1ncn(-c2ccc(N3CCN(c4ccc(OC[C@@H]5CO[C@@](Cn6cncn6)(c6ccc(Cl)cc6Cl)O5)cc4)CC3)cc2)c1=O (relative stereo) [Compound 7e, cis-(2S,4R)-4-[4-[4-[4-[[2-(2,4-Dichlorophenyl)-2-(1H-1,2,4-triazol-1-ylmethyl)-1,3-dioxolan-4-yl]methoxy]phenyl]-lpiperazinyl]phenyl]-2,4-dihydro-2-butyl-3H-1,2,4-triazol-3-one] |  |  | 0.70 | − | 2.10 | − (≥0.45)
[N-]=[N+]=NCCCCCCn1ncn(-c2ccc(N3CCN(c4ccc(OCC5COC(Cn6cncn6)(c6ccc(Cl)cc6Cl)O5)cc4)CC3)cc2)c1=O [Compound 7p, cis-(2S,4R)-4-[4-[4-[4-[[2-(2,4-Dichlorophenyl)-2-(1H-1,2,4-triazol-1-ylmethyl)-1,3-dioxolan-4-yl]methoxy]phenyl]-lpiperazinyl]phenyl]-2,4-dihydro-2-(6-azidohexyl)-3H-1,2,4-triazol-3-one] |  |  | 0.70 | + | 0.30 | + (0.16 to 0.44)
CC1(CCn2ncn(-c3ccc(N4CCN(c5ccc(OCC6COC(Cn7cncn7)(c7ccc(Cl)cc7Cl)O6)cc5)CC4)cc3)c2=O)N=N1 [Compound 7w, cis-(2S,4R)-4-[4-[4-[4-[[2-(2,4-Dichlorophenyl)-2-(1H-1,2,4-triazol-1-ylmethyl)-1,3-dioxolan-4-yl]methoxy]phenyl]-lpiperazinyl]phenyl]-2,4-dihydro-2-(2-(3-methyl-3H-diazirin-3-yl)ethyl)-3H-1,2,4-triazol-3-one] |  |  | 1.32 | + | >13.8 | + (0.16 to 0.44)
CCCC(C)n1ncn(-c2ccc(N3CCN(c4ccc(OC[C@@H]5CO[C@@](Cn6cncn6)(c6ccc(Cl)cc6Cl)O5)cc4)CC3)cc2)c1=O (relative stereo) [Compound 7h, cis-(2S,4R)-4-[4-[4-[4-[[2-(2,4-Dichlorophenyl)-2-(1H-1,2,4-triazol-1-ylmethyl)-1,3-dioxolan-4-yl]methoxy]phenyl]-lpiperazinyl]phenyl]-2,4-dihydro-2-(1-methylbutyl)-3H-1,2,4-triazol-3-one] |  |  | 0.38 | ++ | 0.75 | ++ (≤0.15)
